Source: ChEMBL document CHEMBL1201862, “PubChem BioAssay data set” (2004)
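Values below derive from 48-hour exposures of cells grown in 96-well plates, with endpoints linearly interpolated between the two concentrations bracketing the appropriate inhibition level. GI50 is the concentration that inhibits growth by half.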 Active and inactive are the calls of the source. No stated cut-off is given here; in the data, active = GI50 up to about 1.1 µM and inactive = higher.

Columns and labels:
Assay in all cases: DTP human tumour cell line panel, 48 h
[1] = system: A498
[2] = system: A549
[3] = system: BT-549
[4] = system: CAKI-1
[5] = system: COLO 205
[6] = system: EKVX
[7] = system: HCT-116
[8] = system: Hs-578T
[9] = system: K562
[10] = system: KM12
[11] = system: MOLT-4
[12] = system: Malme-3M
[13] = system: OVCAR-4
[14] = system: OVCAR-5
[15] = system: SF-295
[16] = system: T47D
[17] = system: TK-10
[18] = system: U-251
[19] = system: UACC-62

Row | Compound | GI50 [1] | GI50 [2] | GI50 [3] | GI50 [4] | GI50 [5] | GI50 [6] | GI50 [7] | GI50 [8] | GI50 [9] | GI50 [10] | GI50 [11] | GI50 [12] | GI50 [13] | GI50 [14] | GI50 [15] | GI50 [16] | GI50 [17] | GI50 [18] | GI50 [19]
1 | CS/C(=N\Nc1cnc2ccccc2n1)NS(=O)(=O)c1cc(C)c(Cl)cc1Cl | 43.3 µM (inactive) | > 100 µM (inactive) | > 100 µM (inactive) | 53.5 µM (inactive) | > 100 µM (inactive) | 29 µM (inactive) | > 100 µM (inactive) | > 100 µM (inactive) | > 100 µM (inactive) | > 100 µM (inactive) | > 100 µM (inactive) | > 100 µM (inactive) | > 100 µM (inactive) | > 100 µM (inactive) | > 100 µM (inactive) | > 100 µM (inactive) | 82 µM (inactive) | > 100 µM (inactive) | 50.7 µM (inactive)
2 | CCOC(=O)c1ccc(OCc2nc3cc(C(F)(F)F)ccc3nc2-c2ccccc2)cc1 | > 100 µM (inactive) | > 100 µM (inactive) | > 100 µM (inactive) | > 100 µM (inactive) | > 100 µM (inactive) | > 100 µM (inactive) | > 100 µM (inactive) | > 100 µM (inactive) | 74.3 µM (inactive) | > 100 µM (inactive) | > 100 µM (inactive) |  | > 100 µM (inactive) | > 100 µM (inactive) | > 100 µM (inactive) | > 100 µM (inactive) | > 100 µM (inactive) | > 100 µM (inactive) | > 100 µM (inactive)
3 | CO[C@H]1C[C@H](O[C@H]2CC[C@]3(C=O)[C@H]4CC[C@]5(C)[C@@H](C6=CC(=O)OC6)CC[C@]5(O)[C@@H]4CC[C@]3(O)C2)O[C@H](C)[C@H]1O[C@@H]1O[C@H](CO[C@@H]2O[C@H](CO)[C@@H](O)[C@H](O)[C@H]2O)[C@@H](O)[C@H](O)[C@H]1O | 0.0891 µM (active) | < 0.0131 µM (active) | 0.039 µM (active) | 0.0223 µM (active) | 0.103 µM (active) | 0.0205 µM (active) | 0.0239 µM (active) | 0.0278 µM (active) | 0.0857 µM (active) | 0.104 µM (active) | 0.0215 µM (active) | 0.0588 µM (active) | 0.0281 µM (active) | 0.0671 µM (active) | 0.0395 µM (active) | 0.0527 µM (active) | 0.0279 µM (active) | 0.0658 µM (active) | 0.223 µM (active)
4 | C[C@H]1CC[C@@H]2[C@@H](C)[C@H]3[C@H](C[C@H]4[C@@H]5CC=C6C[C@@H](O)CC[C@]6(C)[C@H]5C[C@H](O)[C@]34C)N2C1 | > 100 µM (inactive) | > 100 µM (inactive) | > 100 µM (inactive) | > 100 µM (inactive) | > 100 µM (inactive) | > 100 µM (inactive) | > 100 µM (inactive) | > 100 µM (inactive) | > 100 µM (inactive) | > 100 µM (inactive) | > 100 µM (inactive) | > 100 µM (inactive) | > 100 µM (inactive) | > 100 µM (inactive) | > 100 µM (inactive) | > 100 µM (inactive) | > 100 µM (inactive) | > 100 µM (inactive) | > 100 µM (inactive)
5 | CN1C(=O)N/C(=C\c2ccc(S(=O)(=O)N/N=C/c3ccccc3)cc2)C1=O | > 100 µM (inactive) | 28.5 µM (inactive) | 27.7 µM (inactive) | 21.2 µM (inactive) | 71.9 µM (inactive) | 53.1 µM (inactive) | 23.8 µM (inactive) | 35.5 µM (inactive) | 30 µM (inactive) | 15.7 µM (inactive) | 14.5 µM (inactive) | 45.5 µM (inactive) | 18.9 µM (inactive) | > 100 µM (inactive) | 21.9 µM (inactive) | 35.2 µM (inactive) | 31 µM (inactive) | 40.6 µM (inactive) | 28.9 µM (inactive)
6 | O=[N+]([O-])c1ccc(SN=S=NSc2cccc(SN=S=NSc3ccc([N+](=O)[O-])cc3)c2)cc1 | 94.8 µM (inactive) | 46.5 µM (inactive) | 19.3 µM (inactive) | 19 µM (inactive) | 46.5 µM (inactive) | 39.3 µM (inactive) | 29.7 µM (inactive) | 58.3 µM (inactive) | 25.2 µM (inactive) | 34.2 µM (inactive) | 10.2 µM (inactive) | 28.1 µM (inactive) | 36.7 µM (inactive) | 25.4 µM (inactive) | 44.3 µM (inactive) | 11.1 µM (inactive) |  | 16.4 µM (inactive) | 37.8 µM (inactive)
7 | CC1(C)OCC(/C=C\C(O)CC2(C)OCCO2)CO1 (stereo not drawn) | > 100 µM (inactive) | > 100 µM (inactive) | > 100 µM (inactive) | > 100 µM (inactive) | > 100 µM (inactive) | > 100 µM (inactive) | > 100 µM (inactive) | > 100 µM (inactive) | > 100 µM (inactive) | > 100 µM (inactive) | > 100 µM (inactive) |  | > 100 µM (inactive) | > 100 µM (inactive) | > 100 µM (inactive) | > 100 µM (inactive) | > 100 µM (inactive) | > 100 µM (inactive) | > 100 µM (inactive)
8 | O=C(NCCCl)N(O)C(=O)Nc1ccccc1 | > 100 µM (inactive) | > 100 µM (inactive) | > 100 µM (inactive) | > 100 µM (inactive) | > 100 µM (inactive) | > 100 µM (inactive) | > 100 µM (inactive) | > 100 µM (inactive) | > 100 µM (inactive) | > 100 µM (inactive) | > 100 µM (inactive) | > 100 µM (inactive) | > 100 µM (inactive) | > 100 µM (inactive) | > 100 µM (inactive) | > 100 µM (inactive) | > 100 µM (inactive) | > 100 µM (inactive) | > 100 µM (inactive)
9 | O=C(NNc1cn[nH]c(=O)n1)c1cccc2nc3ccccc3nc12 | > 100 µM (inactive) | > 100 µM (inactive) | > 100 µM (inactive) | 46.6 µM (inactive) | > 100 µM (inactive) | 35.8 µM (inactive) | > 100 µM (inactive) | 63.2 µM (inactive) | 47.9 µM (inactive) | > 100 µM (inactive) | 11 µM (inactive) | 47.5 µM (inactive) | 68.2 µM (inactive) | > 100 µM (inactive) | 30.2 µM (inactive) | > 100 µM (inactive) | 24.3 µM (inactive) | 27.9 µM (inactive) | 61.5 µM (inactive)
10 | CO[C@@]12C[C@H](CNC(=O)c3ccc[nH]3)O[C@@H]1NC(=O)N2 | > 100 µM (inactive) | > 100 µM (inactive) | > 100 µM (inactive) | > 100 µM (inactive) | > 100 µM (inactive) | > 100 µM (inactive) | > 100 µM (inactive) | > 100 µM (inactive) | > 100 µM (inactive) | > 100 µM (inactive) | > 100 µM (inactive) | > 100 µM (inactive) | > 100 µM (inactive) | > 100 µM (inactive) | > 100 µM (inactive) | > 100 µM (inactive) | > 100 µM (inactive) | > 100 µM (inactive) | > 100 µM (inactive)
11 | CN1c2ccc(Cl)cc2C(=O)NC1c1ccc([N+](=O)[O-])s1 (stereo not drawn) | 14.8 µM (inactive) | 23.5 µM (inactive) | 14.1 µM (inactive) | 15.1 µM (inactive) | 21.5 µM (inactive) | 21.5 µM (inactive) | 15.2 µM (inactive) | 17.3 µM (inactive) | 13.3 µM (inactive) | 16.4 µM (inactive) | 10.4 µM (inactive) |  | 20.4 µM (inactive) | 20.2 µM (inactive) | 21.6 µM (inactive) | 15 µM (inactive) | 20.2 µM (inactive) | 16.4 µM (inactive) | 11.4 µM (inactive)
12 | OCC(O)COCn1nncc1Cn1ncc2c(SCc3ccccc3)ncnc21 (stereo not drawn) | > 100 µM (inactive) | > 100 µM (inactive) | > 100 µM (inactive) | > 100 µM (inactive) | > 100 µM (inactive) | > 100 µM (inactive) | > 100 µM (inactive) | 0.203 µM (active) |  | > 100 µM (inactive) |  |  | > 100 µM (inactive) | > 100 µM (inactive) | > 100 µM (inactive) | > 100 µM (inactive) | > 100 µM (inactive) | > 100 µM (inactive) | > 100 µM (inactive)
13 | Cc1cc(Br)cc(C)c1NC(=O)C(=O)Nn1c(S)nc2ccccc2c1=O | > 100 µM (inactive) | > 100 µM (inactive) | > 100 µM (inactive) | > 100 µM (inactive) |  | > 100 µM (inactive) | > 100 µM (inactive) | > 100 µM (inactive) | > 100 µM (inactive) | > 100 µM (inactive) | > 100 µM (inactive) | > 100 µM (inactive) | 33.8 µM (inactive) | > 100 µM (inactive) | > 100 µM (inactive) | > 100 µM (inactive) | > 100 µM (inactive) | > 100 µM (inactive) | > 100 µM (inactive)
14 | Cn1c(=O)c2[nH]c(CCC(=O)O)nc2n(C)c1=O | > 100 µM (inactive) | > 100 µM (inactive) | > 100 µM (inactive) | > 100 µM (inactive) | > 100 µM (inactive) | > 100 µM (inactive) | > 100 µM (inactive) | > 100 µM (inactive) | > 100 µM (inactive) | > 100 µM (inactive) |  | > 100 µM (inactive) | > 100 µM (inactive) | > 100 µM (inactive) | > 100 µM (inactive) | > 100 µM (inactive) | > 100 µM (inactive) | > 100 µM (inactive) | > 100 µM (inactive)
15 | O=C(c1ccco1)N(C(=S)OCc1ccccn1)c1ccccc1 | > 100 µM (inactive) |  | > 100 µM (inactive) | > 100 µM (inactive) | > 100 µM (inactive) | 13.3 µM (inactive) | > 100 µM (inactive) | > 100 µM (inactive) | 75.3 µM (inactive) | > 100 µM (inactive) | > 100 µM (inactive) | 17.2 µM (inactive) |  | > 100 µM (inactive) |  | 25.1 µM (inactive) | > 100 µM (inactive) | > 100 µM (inactive) | > 100 µM (inactive)
